Test results: patent US20220322671A1, “METHODS TO REDUCE CONTAMINATION, BIOFILM AND FOULING FROM WATER SYSTEMS, SURFACES, AND PRODUCTS” (Aequor, Inc., priority 2019, published 2022)
Values joined by “and” are separate entries in the source; they are usually repeats but may differ in a detail not shown here. Equal entries are not always repeated. Where two headings read alike, the source gives them in different places. Blank lines part the entries; values can stand above or below the compound they belong to.

Legend:
C. marina ATCC 25374 [1] = assay: MIC broth microdilution, C. marina; format: cell-based
C. marina ATCC 25374 [2] = assay: Minimum bactericidal concentration, C. marina; format: cell-based
[3] = test system: C. marina ATCC 25374 biofilm; assay: MBEC biofilm eradication assay, C. marina; format: cell-based
A. niger ATCC 16888 = assay: MIC broth microdilution, A. niger; format: cell-based
P. aeruginosa NR-31041 = assay: MIC broth microdilution, P. aeruginosa; format: cell-based, Pseudomonas aeruginosa
[4] = test system: Heterochlorella luteoviridis cf. (SAG 2203); assay: Algae growth inhibition; format: cell-based; conditions: 1% concentration, 14 days, absorbance 750 nm
Description: The molecules (SDBS, SDS, SEHS, and DBSA) were added to the growth culture medium of algae Heterochlorella luteoviridis cf. (SAG 2203.) Algae was grown in 50 ml tubes at 28 °C for 14 days. Absorbance (optical density) was measured at 750 nm in a spectrophotometer and used to determine concentration to inhibit the growth of algae.

MRSA ATCC 33591 = assay: MIC broth microdilution, MRSA; format: cell-based, S. aureus Methicillin-Resistant
L. fermentum (ATCC 9338) = assay: MIC broth microdilution, L. fermentum; format: cell-based, Lactobacillus fermentum
S. aureus ATCC 12600 = assay: MIC broth microdilution, S. aureus; format: cell-based
E. coli ATCC 11775 = assay: MIC broth microdilution, E. coli; format: cell-based
[5] = C. marina ATCC 25374, materials in water
[6] = 24- and 48-hour biofilm, 30 min exposure

SMILES: CCCCOP(=O)(O)OCCCC [DBP, dibutyl phosphate]
Growth of C. marina (in words) (C. marina ATCC 25374 [1]): inhibited growth
Minimum Inhibitory Concentration (% v/v) M07-09 Method (C. marina ATCC 25374 [1]): 0.1250 % v/v
% Reduction Compared to Control (C. marina ATCC 25374 [2]): 99.9999%
CFU/ml (C. marina ATCC 25374 [2]): <1E+02^1 CFU/ml
Minimum Bactericidal Concentration (% v/v) CLSI M26-A Method (C. marina ATCC 25374 [2]): 0.5000 % v/v
% Reduction Compared to Control [3]: 99.9999% and 99.999%
Log Reduction [3]: 5.5
MBEC ASTM E2799-12 Method (% v/v) [3]: 0.5 % v/v

Minimum Inhibitory Concentration (MIC) M07-09 Method, AN (A. niger ATCC 16888; A. niger ATCC 16888): 0.003 % v/v
Minimum Inhibitory Concentration (MIC) M07-09 Method, PA (P. aeruginosa NR-31041; P. aeruginosa NR-31041): 0.500 % v/v
Minimum Inhibitory Concentration (MIC) M07-09 Method, MRSA (MRSA ATCC 33591): 0.003 % v/v
Minimum Inhibitory Concentration (MIC) (% v/v) M07-09 Method, L. fermentum (L. fermentum (ATCC 9338)): 0.0150 % v/v
Minimum Inhibitory Concentration (MIC) M07-09 Method, SA (S. aureus ATCC 12600; S. aureus ATCC 12600): 0.003 % v/v
Minimum Inhibitory Concentration (MIC) M07-09 Method, EC (E. coli ATCC 11775; E. coli ATCC 11775): 0.100 % v/v
SMILES: CCCCCCCCCCCCc1ccc(S(=O)(=O)O)cc1 [DBSA, 4-Dodecylbenzenesulfonic acid]
Growth of C. marina (in words) (C. marina ATCC 25374 [1]; C. marina): inhibited growth
Minimum Inhibitory Concentration (% v/v) M07-09 Method (C. marina ATCC 25374 [1]; [5]): < 0.0039 % v/v
Algae growth [4]: inhibited
% Reduction Compared to Control (C. marina ATCC 25374 [2]; C. marina ATCC 25374, killing): 99.9999%
Minimum Bactericidal Concentration (% v/v) CLSI M26-A Method (C. marina ATCC 25374 [2]; [5]): 0.0078 % v/v
CFU/ml (C. marina ATCC 25374 [2]; C. marina ATCC 25374, detection limit <1E+02): <1E+02^1 CFU/ml
MBEC ASTM E2799-12 Method (% v/v) [3, 6]: >0.5 % v/v
% Biofilm Removal Efficacy ([3]; 48-hour biofilm, 0.0078 % v/v): 73.64%
Log Reduction ([3]; 48-hour biofilm, 0.0078 % v/v): 0.58
% Biofilm Removal Efficacy ([3]; 48-hour biofilm, 0.0156 % v/v): 86.36%
Log Reduction ([3]; 48-hour biofilm, 0.0156 % v/v): 0.87
% Biofilm Removal Efficacy ([3]; 48-hour biofilm, 0.0313 % v/v): 96.27%
Log Reduction ([3]; 48-hour biofilm, 0.0313 % v/v): 1.43
% Biofilm Removal Efficacy ([3]; 48-hour biofilm, 0.0630 % v/v): 98.27%
Log Reduction ([3]; 48-hour biofilm, 0.0630 % v/v): 1.76
Removal of existing 48-hour biofilm (up to) ([3]; 48-hour biofilm, best of the tested concentrations): ≤ 99%

SMILES: CCCCCCCCCCCCOS(=O)(=O)[O-].[Na+] [SDS, sodium dodecyl sulfate]
Minimum Inhibitory Concentration (MIC) M07-09 Method, AN (A. niger ATCC 16888): 0.030 % v/v
Minimum Inhibitory Concentration (MIC) M07-09 Method, PA (P. aeruginosa NR-31041): 0.500 % v/v
Algae growth [4]: inhibited
Minimum Inhibitory Concentration (MIC) M07-09 Method, MRSA (MRSA ATCC 33591): 0.028 % v/v
Minimum Inhibitory Concentration (MIC) M07-09 Method, SA (S. aureus ATCC 12600): 0.028 % v/v
Minimum Inhibitory Concentration (MIC) M07-09 Method, EC (E. coli ATCC 11775): 0.100 % v/v

SMILES: CCCCC(CC)COS(=O)(=O)[O-].[Na+] (stereo not drawn) [SEHS, sodium 2-ethylhexylsulfate]
Growth of C. marina (in words) (C. marina ATCC 25374 [1]): inhibited growth
Minimum Inhibitory Concentration (% v/v) M07-09 Method (C. marina ATCC 25374 [1]): 0.0313 % v/v
Minimum Inhibitory Concentration (MIC) M07-09 Method, PA (P. aeruginosa NR-31041): 0.500 % v/v
Algae growth [4]: inhibited
% Reduction Compared to Control (C. marina ATCC 25374 [2]): 99.9999%
CFU/ml (C. marina ATCC 25374 [2]): <1E+02^1 CFU/ml
Minimum Bactericidal Concentration (% v/v) CLSI M26-A Method (C. marina ATCC 25374 [2]): 0.0630 % v/v
MBEC ASTM E2799-12 Method (% v/v) [3, 6]: >0.5 % v/v
Minimum Inhibitory Concentration (MIC) M07-09 Method, SA (S. aureus ATCC 12600): 0.280 % v/v
